Assay results reported in patent publication US7993884B2, “Beta-xylosidase for conversion of plant cell wall carbohydrates to simple sugars” (The United States of America as represented by the …, priority 2006, dated 2011).
Where “and” joins values, the source holds several entries; their conditions need not be identical. Identical values can stand only once. Like-named read-outs stand apart in the source and are kept apart here.

Tests used:
SXA [1] = molecular target: T1, SXA (Selenomonas ruminantium, UniProt O52575); assay: biochemical
From the text: (§1) Concentrations of D-xylose produced versus time were fitted to lines for determination of initial rates. For determination of steady-state kinetic parameters, initial rates were fitted to Eq. 2 (competitive inhibition).

SXA [2] = molecular target: T1, SXA; assay: SXA-catalyzed hydrolysis of 4NP-glycoside substrates, initial rates (Methods A and B); format: biochemical;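 note: initial rates from 4-nitrophenol release, tracked by absorbance over roughly 0.3 min and converted using product-minus-substrate extinction differences, in 1 mL mixtures started by enzyme addition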
Method: (§2) Two methods were employed for determining initial rates. […] Initial rates were calculated from fitting the absorbance readings versus time to a line (minimum of 4 points per reaction progression) and by using an extinction coefficient of 17.4 mM^−1 cm^−1. In Method B (continuous monitoring), temperature-equilibrated reactions (1 mL) were monitored at 380 nm (for pH values below 6) or 400 nm (for pH values of 6 and above). Reactions were generally monitored 0.3 min for initial rate determinations. Delta extinction coefficients (product-substrate) used for molar conversion were determined by subtracting the absorbance of substrate (at pH 5 so even very minor contaminating 4NP would not contribute) from the absorbance of 4NP for each reaction condition. […] The concentration of 4NP substrates was determined by incubating the substrate with excess enzyme until an end point was reached, adding an aliquot (0.01 to 0.1 mL) to 0.1 M NaOH, recording the absorbance at 400 nm and using the extinction coefficient of 18.3 cm^−1mM^−1. Unless indicated otherwise, for both Methods A and B, reactions were initiated by adding a small aliquot of enzyme (generally 7 μl of enzyme diluted into 10 mM sodium phosphate, pH 7.0, and incubated on wet ice or at ˜25° C.) to the 1-mL, temperature-equilibrated (25° C.) reaction mixtures. For pH studies, buffers of constant ionic strength (I=0.3 M), adjusted with NaCl, were used as indicated: 100 mM succinate-NaOH (pH 4.3-6), 100 mM sodium phosphate (pH 6-8), 30 mM sodium pyrophosphate (pH 8-9), glycine-NaOH (pH 9) and glycylglycine-NaOH (pH 9).

SXA [3] = molecular target: T1, SXA; assay: biochemical; conditions: read-out: Km^4NPX; 100 mM succinate-NaOH, pH 5.3, 25° C.
SXA [4] = molecular target: T1, SXA; conditions: for relative kcat values: pH 5.3 and 25° C., relative to A2
Method: Samples (25 μL) were injected onto the column equilibrated with 0.1 M NaOH and developed with a 15-min linear gradient (0.1 M NaOH to 15 mM sodium acetate) at ˜25° C. and a flow rate of 1 mL min^−1.
Before (time=0 min) and after (time=1-6 min) initiating reactions with enzyme (7 μL), samples (0.05-0.1 mL) were removed and quenched with an equal volume of 0.5 M acetic acid and frozen. Following lyophilization, samples were dissolved in H2O and analyzed by HPLC. […] Results from two replicate reactions were combined to provide data points for the progress curves.
Before and after addition of enzyme (7 μL), 25-μl aliquots of the reaction mixtures were directly injected onto the HPLC column for quantification of product L-arabinose.

SXA [5] = molecular target: T1, SXA; conditions: read-out: Km^4NPX; pH 5.3, 25° C., HPLC of D-xylose
From the text: as §1

[6] = molecular target: Selenomonas ruminantium GA192 β-D-xylosidase (SXA, parent SEQ ID NO: 2) variant D127A (Pseudoselenomonas ruminantium, UniProt O52575, D127A); assay: Steady-state kinetics of SXA mutant D127A with 4NPX
Method: (§3) Site-directed mutagenesis was performed using the QuikChange site-directed mutagenesis kit (Stratagene) according the manufacturer's instructions. […] Complete sequences were determined on a 3700 sequencer (Applied Biosystems) using T7 promoter and specific primers to confirm that only the intended mutations had been introduced. Lasergene software (DNAStar) was used to analyze the sequence data. pSRA1 and its mutated plasmids were used for the transformation of E. coli BL21(DE3). Transformants were inoculated to 50 mL Luria-Bertani (LB) broth supplemented with 50 mg ampicillin/mL and the flask was shaken overnight at 250 rpm and 37° C. Twenty mL of the overnight culture were transferred to a 2.8-liter baffled flask containing 1.0 liter SOB medium [2.0% tryptone, 0.5% yeast extract, 0.05% NaCl, 0.0186% KCl (all in wt/vol) and 10 mM MgSO4] supplemented with 50 mg ampicillin/mL. The culture was shaken at 250 rpm and 37° C. […] Cells were harvested by centrifugation and cell pellets were stored at −80° C. until use.
(§4) Initial purification steps and diafiltration steps were performed at 4° C. Chromatography was at room temperature (˜24° C.). Cells were thawed, suspended in 40 mL of 50 mM Tris-HCl, pH 7.5 (Buffer A) containing Complete protease inhibitor cocktail (Roche) and disrupted by sonication. […] The column was washed until absorbance at 280 nm of the eluate became minimal (˜200 mL) and developed with a 500-mL linear gradient (Buffer A+30% saturated ammonium sulfate to Buffer A).
(§5) Two methods were employed for determining initial rates. […] Initial rates were calculated from fitting the absorbance readings versus time to a line (minimum of 4 points per reaction progression) and by using an extinction coefficient of 17.4 mM^−1 cm^−1. […] The concentration of 4NP substrates was determined by incubating the substrate with excess enzyme until an end point was reached, adding an aliquot (0.01 to 0.1 mL) to 0.1 M NaOH, recording the absorbance at 400 nm and using the extinction coefficient of 18.3 cm^−1mM^−1. […]

[7] = molecular target: Selenomonas ruminantium GA192 β-D-xylosidase (SXA, parent SEQ ID NO: 2) variant H248A (Pseudoselenomonas ruminantium, UniProt O52575, H248A); assay: Steady-state kinetics of SXA mutant H248A with 4NPX
Method: as §3, §4, §5

[8] = molecular target: Selenomonas ruminantium GA192 β-D-xylosidase (SXA, parent SEQ ID NO: 2) variant R290A (Pseudoselenomonas ruminantium, UniProt O52575, R290A); assay: Steady-state kinetics of SXA mutant R290A with 4NPX
Method: as §3
(§6) Initial purification steps and diafiltration steps were performed at 4° C. Chromatography was at room temperature (˜24° C.). Cells were thawed, suspended in 40 mL of 50 mM Tris-HCl, pH 7.5 (Buffer A) containing Complete protease inhibitor cocktail (Roche) and disrupted by sonication. Following centrifugation, the supernatant was brought to 30% saturation with respect to ammonium sulfate and centrifuged. […] The column was washed until absorbance at 280 nm of the eluate became minimal (˜200 mL) and developed with a 500-mL linear gradient (Buffer A+30% saturated ammonium sulfate to Buffer A).
(§7) Two methods were employed for determining initial rates. […] Initial rates were calculated from fitting the absorbance readings versus time to a line (minimum of 4 points per reaction progression) and by using an extinction coefficient of 17.4 mM^−1 cm^−1. […] The concentration of 4NP substrates was determined by incubating the substrate with excess enzyme until an end point was reached, adding an aliquot (0.01 to 0.1 mL) to 0.1 M NaOH, recording the absorbance at 400 nm and using the extinction coefficient of 18.3 cm^−1mM^−1. Unless indicated otherwise, for both Methods A and B, reactions were initiated by adding a small aliquot of enzyme (generally 7 μl of enzyme diluted into 10 mM sodium phosphate, pH 7.0, and incubated on wet ice or at ˜25° C.) to the 1-mL, temperature-equilibrated (25° C.) reaction mixtures. For pH studies, buffers of constant ionic strength (I=0.3 M), adjusted with NaCl, were used as indicated: 100 mM succinate-NaOH (pH 4.3-6), 100 mM sodium phosphate (pH 6-8), 30 mM sodium pyrophosphate (pH 8-9), glycine-NaOH (pH 9) and glycylglycine-NaOH (pH 9).

[9] = molecular target: Selenomonas ruminantium GA192 β-D-xylosidase (SXA, parent SEQ ID NO: 2) variant D14A (Pseudoselenomonas ruminantium, UniProt O52575, D14A); assay: Steady-state kinetics of SXA mutant D14A with 4NP substrates
Method: as §3, §6, §7

[10] = molecular target: Selenomonas ruminantium GA192 β-D-xylosidase (SXA, parent SEQ ID NO: 2) variant E186A (Pseudoselenomonas ruminantium, UniProt O52575, E186A); assay: Steady-state kinetics of SXA mutant E186A with 4NP substrates
Method: as §3, §6, §7

[11] = molecular target: T2, Selenomonas ruminantium GA192 β-D-xylosidase (SXA), wild type, SEQ ID NO: 2 (Pseudoselenomonas ruminantium, UniProt O52575); assay: Steady-state kinetics of SXA with 4NPX2, A2 and X2-X6 by HPLC (Example 1); conditions: for relative kcat value: A2 = 1
[12] = molecular target: T2, Selenomonas ruminantium GA192 β-D-xylosidase (SXA), wild type, SEQ ID NO: 2; assay: Steady-state kinetics of SXA with 4NP-glycosides (Example 1, Methods A and B)
Method: Kinetics with 4NP Substrates
as §2

[13] = molecular target: T2, Selenomonas ruminantium GA192 β-D-xylosidase (SXA), wild type, SEQ ID NO: 2; assay: Steady-state kinetics of SXA with X2-X6, improved quenching, HPLC (Example 3); conditions: for factor by which kcat is higher than that of the Bacillus pumilus enzyme: SXA pH 5.3 vs B. pumilus pH 7.15, 25° C
Method: (§8) Samples (25 μL) were injected onto the column equilibrated with 0.1 M NaOH and developed with a 5-min linear gradient (0.1 M NaOH to 33 mM sodium acetate) at ˜25° C. and a flow rate of 1 mL min^−1.
(§9) Samples were kept on wet ice or the HPLC autosampler at 5° C. until analyzed by HPLC. Initial rates, calculated from linear regressions of the [D-xylose] produced versus time, were fitted to Eq. 1 to determine steady-state kinetic parameters.

SXA [14] = molecular target: T1, SXA
Method: as §8, §9

[15] = molecular target: T3, enzyme from Bacillus pumilus (Bacillus pumilus, UniProt P07129); conditions: pH 7, 25° C.; cited from earlier work
T3 sequence (P07129 1-535): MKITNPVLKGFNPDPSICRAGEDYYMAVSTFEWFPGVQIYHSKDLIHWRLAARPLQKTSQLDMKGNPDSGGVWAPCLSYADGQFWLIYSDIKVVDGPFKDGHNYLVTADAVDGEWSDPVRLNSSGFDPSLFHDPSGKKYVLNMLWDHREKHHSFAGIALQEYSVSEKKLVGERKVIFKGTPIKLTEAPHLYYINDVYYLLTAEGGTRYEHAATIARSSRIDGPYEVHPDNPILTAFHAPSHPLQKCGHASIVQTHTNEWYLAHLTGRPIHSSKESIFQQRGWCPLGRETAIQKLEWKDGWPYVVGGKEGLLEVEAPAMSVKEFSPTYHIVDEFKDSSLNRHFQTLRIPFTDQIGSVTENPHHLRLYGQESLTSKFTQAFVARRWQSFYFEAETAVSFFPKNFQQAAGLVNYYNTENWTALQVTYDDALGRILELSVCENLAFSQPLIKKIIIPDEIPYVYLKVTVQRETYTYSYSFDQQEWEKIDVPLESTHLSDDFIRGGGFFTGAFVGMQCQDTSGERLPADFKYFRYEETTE

[16] = tested on: Bacillus pumilus β-xylosidase; conditions: pH 7, 25° C.; cited from earlier work
[17] = Exper. 1: succinate pH 5.3, Method A, η/ηo 1.00
[18] = Exper. 1: succinate pH 5.3, Method A, η/ηo 6.12 (50% sucrose)
[19] = Exper. 2: MES pH 6.00, Method B, η/ηo 1.00
[20] = Exper. 2: MES pH 6.00, Method B, η/ηo 6.85 (50% sucrose)
[21] = I=0.3 M, 25° C., Eq. 7 (4NPX), Eq. 5 (4NPA)
[22] = 100 mM succinate-NaOH, pH 5.3, 25° C, Method A
[23] = same reaction conditions, pH 5.3, 25° C.
[24] = 100 mM succinate-NaOH, pH 5.3, 25° C

O=[N+]([O-])c1ccc(O)cc1 [4NP, 4-nitrophenol]
Ki (SXA [1]): 6.28 ± 0.55 mM

O=[N+]([O-])c1ccc(O[C@@H]2OC[C@@H](O)[C@H](O)[C@H]2O)cc1 [4NPX, 4-nitrophenyl-β-D-xylopyranoside]
pH-independent kcat (SXA [2]): 32.7±0.5 s^−1
pH-independent kcat/Km (SXA [2]): 58.7±1.3 s^−1 mM^−1
Relative Rate (SXA [2]; 5 mM 4NP glycoside, 100 mM succinate-NaOH, pH 5.3, 25° C., Method A, initial rate relative to 4NPX): 1.00 ± 0.01
Km (SXA [2]; 100 mM sodium phosphate, pH 7.0, 25° C., Method B): 443 ± 8 µM
pH-independent 1/Km (SXA [2]; 1/Km versus pH, Eq. 4 (4NPX), Eq. 5 (4NPA)): 2.65±0.081 mM^−1
pKa of 1/Km versus pH (single protonatable group) (SXA [2]; Eq. 4): 5.6 and 5.56±0.08
Km (SXA [2]; [17]): 742 ± 41 µM
kcat Rel. to η/ηo = 1 (SXA [2]; [17]): 1.00
Km (SXA [2]; [18]): 690 ± 35 µM
kcat Rel. to η/ηo = 1 (SXA [2]; [18]): 0.910 ± 0.0152
Km (SXA [2]; [19]): 699 ± 35 µM
kcat Rel. to η/ηo = 1 (SXA [2]; [19]): 1.00
Km (SXA [2]; [20]): 637 ± 81 µM
kcat Rel. to η/ηo = 1 (SXA [2]; [20]): 0.920 ± 0.040
pKa1 of kcat versus pH (SXA [2]; I=0.3 M, 25° C., Eq. 5): 3.5 and ~3.6 and 3.54±0.10
pKa1 of kcat/Km versus pH (SXA [2]; I=0.3 M, 25° C., Eq. 5): ~5.0 and 5.00±0.04
pKa2 of kcat versus pH (SXA [2]; I=0.3 M, 25° C., Eq. 5): 6.9 and 6.90±0.03
pKa2 of kcat/Km versus pH (SXA [2]; I=0.3 M, 25° C., Eq. 5): 7.23±0.04
pKa1 of 1/Km versus pH (SXA [2]; [21]): 4.8 and 4.81±0.21
pKa2 of 1/Km versus pH (SXA [2]; [21]): 6.4 and 6.39±0.26
higher affinity of dianionic SXA (D14^−E186^−) than monoanionic SXA (D14^−E186^H) (SXA [2]; from pH dependency of 1/Km): ~2 fold and 1.9 fold
factor by which kcat of SXA is higher than that of the B. pumilus enzyme (SXA [2]; substrate 4NPX, SXA pH 5.3, 25° C. (Example 1) vs B. pumilus pH 7.15, 25° C.): 4
Km (SXA [3]): 716 ± 32 µM
relative kcat values (SXA [4]): 340
Km (SXA [5]): 758 ± 59 µM
kcat [6, 22]: 0.000129 ± 0.000003 s⁻¹
factor by which kcat is degraded vs wild type ([6]; pH 5.3, 25° C.): 24000
kcat [7, 22]: 0.0950 ± 0.0025 s⁻¹
factor by which kcat is degraded vs wild type ([7]; pH 5.3, 25° C.): 330
kcat ([8]; 100 mM succinate-NaOH, pH 5.3, 25° C, Method A, not well determined (highest 4NPX 5 mM)): 0.0126 ± 0.0020 s⁻¹
factor by which kcat is degraded vs wild type ([8]; pH 5.3, 25° C.): 2500
increase of Km(4NPX) vs wild type ([8]; pH 5.3, 25° C.): 70 fold
kcat [9, 22]: 0.00954 ± 0.00016 s⁻¹
factor by which kcat is degraded vs wild type ([9]; pH 5.3, 25° C.): 3300
kcat [10, 22]: 0.00267 ± 0.00005 s⁻¹
factor by which kcat is degraded vs wild type ([10]; pH 5.3, 25° C.): 12000
relative kcat value ([11]; pH 5.3, 25° C): 340
kcat ([12]; 100 mM MES-NaOH, pH 6.00, 25° C, Method B, 50% sucrose, η/ηo 6.85): 30.1 ± 1.1 s⁻¹
kcat ([12]; 100 mM MES-NaOH, pH 6.00, 25° C, Method B, η/ηo 1.00): 32.9 ± 0.5 s⁻¹
kcat ([12]; 100 mM succinate-NaOH, pH 5.3, 25° C, Method A, no sucrose): 32.8 ± 0.6 s⁻¹ and 31.1 ± 0.4 s⁻¹
affinity of dianionic SXA (D14^−E186^−), higher than that of monoanionic SXA (D14^−E186^H) ([12]; from pH dependence of 1/Km): ~2 fold and 1.9 fold
kcat ([12]; pH 5.3, 25° C, Method A, 50% sucrose, η/ηo 6.12): 29.8 ± 0.5 s⁻¹
kcat Rel. to η/ηo = 1 ([12]; pH 5.3, η/ηo 6.12): 0.910 ± 0.0152
kcat Rel. to η/ηo = 1 ([12]; pH 6.00, η/ηo 6.85): 0.920 ± 0.040
pH-independent kcat ([12]; pH profile, I=0.3 M, Method B): 32.7±0.5 s^−1
factor by which kcat is higher than that of the Bacillus pumilus enzyme [13]: 4

OC1OC[C@@H](O[C@@H]2OC[C@@H](O)[C@H](O)[C@H]2O)[C@H](O)[C@H]1O (stereo partly drawn) [X2, 1,4-β-D-Xylobiose]
Km (SXA [4]; 100 mM succinate-NaOH, pH 5.3, 25° C. (Example 1)): 4200 µM
dissociation constant for the transition state (SXA [4]; assuming noncatalyzed rate similar to a-methylglucopyranoside): ~10^−19
time of peak height of intermediate product, observed (SXA [4]; hydrolysis of X4, pH 5.30, 25° C.): 2940 s
time of peak height of intermediate product, observed (SXA [4]; hydrolysis of X6, pH 5.30, 25° C.): 13384 s
relative kcat values (SXA [4]): 5600
kcat, fold larger than with 4NPX (SXA [4]; [23]): 12 fold and 13 fold
kcat/Km, fold larger than with 4NPX (SXA [4]; [23]): 2 fold
pH-independent kcat (SXA [14]): 172±2
Km (SXA [14]; 100 mM succinate-NaOH, pH 5.3, 25° C., improved quench (Example 3)): 2060 ± 80 µM
pKa of kcat versus pH (single group) (SXA [14]; Eq. 5, I=0.3 M, 25° C.): 7.57±0.03
pKa1 of kcat/Km versus pH (SXA [14]; Eq. 6, I=0.3 M, 25° C.): 4.86±0.06
pKa2 of kcat/Km versus pH (SXA [14]; Eq. 6, I=0.3 M, 25° C.): 7.01±0.05
pKa1 of 1/Km versus pH (SXA [14]; Eq. 7, I=0.3 M, 25° C.): 4.78±0.11
pKa2 of 1/Km versus pH (SXA [14]; Eq. 7, I=0.3 M, 25° C.): 7.03±0.17
factor by which kcat of SXA is higher than that of the Bacillus pumilus enzyme (SXA [14]; SXA pH 5.3, 25° C. vs B. pumilus pH 7.15, 25° C.): 10
lower affinity of dianionic SXA (D14^−E186^−) than monoanionic SXA (D14^−E186^H) (SXA [14]; from pH dependencies of 1/Km): 2.9 fold and 3 fold
pH-independent kcat/Km (SXA [14]; kcat/Km versus pH, Eq. 6, I=0.3 M, 25° C. (FIG. 19)): 123±5
kcat lower than previous determination (Example 1) (SXA [14]; pH 5.3, 25° C.): 55%
kcat/Km lower than previous determination (Example 1) (SXA [14]; pH 5.3, 25° C.): 9%
kcat, Bacillus pumilus enzyme [15]: 18 s⁻¹

OC1OC[C@@H](O[C@@H]2OC[C@@H](O)[C@H](O)[C@H]2O)[C@H](O)[C@H]1O (stereo partly drawn) [X2, 1,4-β-D-xylobiose]
kcat [16]: 18 s⁻¹
kcat [11, 24]: 412 s⁻¹ and 412 ± 18 s⁻¹
kcat ([11]; pH 5.3, 25° C (Example 1), approximate): approximately 410 sec^−1
relative kcat value ([11]; pH 5.3, 25° C): 5600
kcat relative to that of substrates X3-X6 ([11]; pH 5.3, 25° C.): 2-4 fold
kcat ratio X2 vs 4NPX [11, 23]: 12 fold and 13 fold
kcat [13, 24]: 185 ± 3 s⁻¹
factor by which kcat is higher than that of the Bacillus pumilus enzyme [13]: 10
affinity of dianionic SXA (D14^−E186^−), lower than that of monoanionic SXA (D14^−E186^H) ([13]; from pH dependence of 1/Km): 2.9 fold and 3 fold
kcat ([13]; pH 5.3, 25° C (improved technique), approximate): approximately 185 sec^−1
pH-independent kcat ([13]; pH profile, I=0.3 M, 25° C): 172±2
